Measured values taken from US11078205B2, “Selective inhibitors of protein arginine methlytransferase 5 (PRMT5)” (Prelude Therapeutics, Incorporated, priority 2017, dated 2021).
Converted amounts (≈) assume the structure as drawn.

Tests used:
FaSSIF solubility = settings: 25 °C, thermodynamic from solid
PRMT5/MEP50 complex = PRMT5/MEP50 complex (Homo sapiens (Human), UniProt O14744); assay: Biochemical assay: PRMT5/MEP50 methylation of histone H2A with 3H-SAM, filter plate scintillation; settings: histone H2A 5 μM, SAM 1 μM, PRMT5/MEP50 5 nM
Chain of PRMT5/MEP50 complex (O14744 whole entry): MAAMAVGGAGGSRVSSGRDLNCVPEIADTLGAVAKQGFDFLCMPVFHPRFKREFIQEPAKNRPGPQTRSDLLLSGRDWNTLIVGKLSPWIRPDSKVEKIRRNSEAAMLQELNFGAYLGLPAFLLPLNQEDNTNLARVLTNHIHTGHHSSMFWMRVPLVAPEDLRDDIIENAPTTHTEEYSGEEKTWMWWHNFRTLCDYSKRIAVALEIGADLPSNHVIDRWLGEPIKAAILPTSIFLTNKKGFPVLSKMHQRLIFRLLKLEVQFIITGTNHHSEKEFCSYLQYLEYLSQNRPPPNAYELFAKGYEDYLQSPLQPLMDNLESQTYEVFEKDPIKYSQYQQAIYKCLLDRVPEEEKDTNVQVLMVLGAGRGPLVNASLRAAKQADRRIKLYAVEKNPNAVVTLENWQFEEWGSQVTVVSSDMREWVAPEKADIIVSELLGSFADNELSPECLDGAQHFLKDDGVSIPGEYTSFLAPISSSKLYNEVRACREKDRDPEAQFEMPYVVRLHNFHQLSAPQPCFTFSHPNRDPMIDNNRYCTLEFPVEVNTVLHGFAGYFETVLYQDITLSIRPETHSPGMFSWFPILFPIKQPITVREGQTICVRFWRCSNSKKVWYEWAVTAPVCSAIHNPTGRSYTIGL
Chain of PRMT5/MEP50 complex (Q9BQA1 whole entry partner): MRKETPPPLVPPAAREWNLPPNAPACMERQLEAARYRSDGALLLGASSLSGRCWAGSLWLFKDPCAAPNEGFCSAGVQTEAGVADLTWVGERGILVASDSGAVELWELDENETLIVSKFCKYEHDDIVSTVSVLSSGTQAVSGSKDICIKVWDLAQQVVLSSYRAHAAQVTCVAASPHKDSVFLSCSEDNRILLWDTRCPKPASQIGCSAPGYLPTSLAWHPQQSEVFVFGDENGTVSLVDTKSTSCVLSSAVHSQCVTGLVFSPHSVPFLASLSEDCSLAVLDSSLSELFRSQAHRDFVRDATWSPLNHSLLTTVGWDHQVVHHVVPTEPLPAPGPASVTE
Procedure: Biochemical Assay Protocol
Compounds were solubilized and 3-fold diluted in 100% DMSO. […] Standard reactions were performed in a total volume of 50 μl in assay buffer, with histone H2A (5 μM final) as substrate. To this was added the PRMT5/MEP50 complex diluted to provide a final assay concentration of 5 nM and the compounds were allowed to preincubate for 15 to 20 minutes at room temperature. The reaction was initiated by adding S-[3H-methyl]-adenosyl-L-methionine (PerkinElmer) to final concentration of 1 μM. Following a 60 minutes incubation at 30° C., the reaction was stopped by adding 100 μL of 20% TCA. Each reaction was spotted onto filter plate (Multi Screen FB Filter Plate, Millipore), and washed 5 times with PBS buffer, Scintillation fluid was added to the filter plate and read in a scintillation counter. IC50 values were determined by fitting the data to the standard 4 parameters with Hill Slope using GraphPad Prism software.

sDMA in tumor samples = assay: sDMA levels in Granta-519 xenograft tumor samples by western blot; assay type: in vivo, mouse; settings: 12 hours after last dosing
Procedure: Granta-519 cells was maintained in DMEM medium supplemented with 10% fetal bovine serum and 2 mM L-Glutamine at 37° C. in an atmosphere of 5% CO2 in air. Cells in exponential growth phase were harvested and 1×10^7 cells in 0.1 mL of PBS with Matrigel (1:1) were injected subcutaneously at the right lower flank region of each mouse for tumor development. The treatments were started when the mean tumor size reaches approximately 300-400 mm^3. […] Example 47 or vehicle (0.5% Na CMC+0.5% Tween80, suspension) were administered orally (QD for Example 47, QD for vehicle) at a dose of 30 mg/kg and 50 mg/kg for 19 and 16 days, respectively. Body weights and tumor size were measured every 3 to 4 days after randomization. Animals were euthanized 12 hours after last dosing, and blood and tumor samples were collected for analysis.
To measure sDMA levels in tumor samples, tumors from each mouse were weighted and homogenized in RIPA buffer supplemented with protease inhibitor (cOmplete™, EDTA-free Protease Inhibitor Cocktail, Roche). Lysate were centrifuged at 14,000 rpm for 30 min at 4° C. to remove debris. Total protein concentrations of lysate were determined by BCA assay (ThermoFisher Scientific, Catalog #: 23225). Equal amount of total proteins from each tumor were separated on SDS-PAGE gel, and sDMA levels were determined by WB as described previously.

With `CC(=O)CC(c1ccccc1)c1c(O)c2ccccc2oc1=O` (centres unmarked) [Warfarin] the solubility at 4 h (FaSSIF solubility) was 10 to 25 µg/mL (≈ 32.4 to 81.1 µM).
Compound `C[C@@]1(O)[C@@H]([C@@H](O)c2ccc(Cl)c(Cl)c2)O[C@@H](n2ccc3c(N)ncnc32)[C@@H]1O` [Example 66, (2R,3S,4R,5R)-5-(4-amino-7H-pyrrolo[2,3-d]pyrimidin-7-yl)-2-((S)-(3,4-dichlorophenyl)(hydroxy)methyl)-3-methyltetrahydrofuran-3,4-diol] has an IC50 (PRMT5/MEP50 complex) of 0.707 µM.
For `C[C@@]1(O)[C@@H]([C@H](O)c2ccc(Cl)c(Cl)c2)O[C@@H](n2ccc3c(N)ncnc32)[C@@H]1O` [Example 47, (2R,3S,4R,5R)-5-(4-amino-7H-pyrrolo[2,3-d]pyrimidin-7-yl)-2-((R)-(3,4-dichlorophenyl)(hydroxy)methyl)-3-methyltetrahydrofuran-3,4-diol], the “inhibition of sDMA” value (sDMA in tumor samples; 30 mg/kg orally QD) was greater than 90% and the “sDMA level in tumor” value (sDMA in tumor samples; 50 mg/kg orally QD) was “no detectable sDMA”.
With `O=C1C(O)=C([C@H]2CC[C@H](c3ccc(Cl)cc3)CC2)C(=O)c2ccccc21` [Atovaquone] the solubility at 4 h (FaSSIF solubility; fassif) was less than 2 µg/mL.
